ChEMBL document CHEMBL1131014, “Three-dimensional quantitative similarity-activity relationships (3D QSiAR) from SEAL similarity matrices” (J Med Chem, 1998)

These compounds were tested against T1, Corticosteroid-binding globulin (Homo sapiens) (UniProt P08185).
T1 sequence (whole entry): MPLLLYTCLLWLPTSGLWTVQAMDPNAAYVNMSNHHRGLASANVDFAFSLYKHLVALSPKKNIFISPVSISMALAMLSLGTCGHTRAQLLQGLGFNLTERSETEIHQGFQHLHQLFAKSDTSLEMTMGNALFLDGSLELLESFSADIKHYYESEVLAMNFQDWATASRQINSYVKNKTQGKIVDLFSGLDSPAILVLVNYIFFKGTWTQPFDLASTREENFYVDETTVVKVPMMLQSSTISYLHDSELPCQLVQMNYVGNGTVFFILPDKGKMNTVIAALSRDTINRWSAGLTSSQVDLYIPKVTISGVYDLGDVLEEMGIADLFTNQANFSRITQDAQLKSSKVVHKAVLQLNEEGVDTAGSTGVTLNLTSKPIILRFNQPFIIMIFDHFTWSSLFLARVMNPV
Description: Binding affinity to corticosteroid binding globulin

Point of comparison: `CC(=O)[C@H]1CC[C@H]2[C@@H]3CCC4=CC(=O)CC[C@]4(C)[C@H]3C(=O)C[C@]12C`, Log K 6.78. Against it:
- CC(=O)[C@@]1(O)[C@H](O)C[C@H]2[C@@H]3CCC4=CC(=O)CC[C@]4(C)[C@H]3CC[C@@]21C — lower, 6.25
- CC(=O)[C@H]1[C@H](C)C[C@H]2[C@@H]3CCC4=CC(=O)CC[C@]4(C)[C@H]3CC[C@@]21C — higher, 7.12
- C[C@]12CC[C@H](O)CC1=CC[C@@H]1[C@@H]2CC[C@]2(C)C(=O)CC[C@@H]12 — lower, 5
- C[C@]12CC[C@H]3[C@@H](CCC4=CC(=O)CC[C@@]43C)[C@@H]1CC[C@@H]2C(=O)CO — higher, 7.65
- C[C@]12CC[C@@H]3c4ccc(O)cc4CC[C@H]3[C@@H]1C[C@@H](O)[C@@H]2O — lower, 5
- C[C@]12CCC(=O)C=C1CC[C@@H]1[C@@H]2[C@@H](O)C[C@]2(C=O)[C@@H](C(=O)CO)CC[C@@H]12 — lower, 6.28
- CC(=O)[C@@]1(O)CC[C@H]2[C@@H]3CC[C@@H]4C[C@H](O)CC[C@]4(C)[C@H]3CC[C@@]21C — lower, 5
- C[C@]12CC[C@H]3[C@@H](CCC4=CC(=O)CC[C@@H]43)[C@@H]1CC[C@@H]2O — lower, 6.14
- CC(=O)[C@H]1CC[C@H]2[C@@H]3CCC4=CC(=O)CC[C@]4(C)[C@H]3CC[C@]12C — higher, 7.38
- C[C@]12CCC(=O)C=C1CCC1[C@@H]2C(=O)C[C@@]2(C)[C@H]1CC[C@]2(O)C(=O)CO (single isomer, unassigned) — within 0.2 log units, 6.89
- C[C@]12C[C@@H](O)[C@H]3[C@@H](CCC4=CC(=O)CC[C@@]43C)[C@@H]1CC[C@@H]2C(=O)CO — higher, 7.2
- C[C@]12C=CC(=O)C=C1CCC1[C@@H]2[C@@H](O)C[C@@]2(C)[C@H]1CC[C@]2(O)C(=O)CO (single isomer, unassigned) — higher, 7.51
- C[C@]12CCC(=O)C=C1CC[C@@H]1[C@@H]2CC[C@@]2(C)[C@H]1CC[C@]2(O)C(=O)CO — higher, 7.88
- C[C@]12CCC(=O)C=C1CCC1[C@@H]2[C@@H](O)C[C@@]2(C)[C@H]1CC[C@]2(O)C(=O)CO (single isomer, unassigned) — higher, 7.88
- C[C@]12CC[C@H](O)C[C@@H]1CC[C@@H]1[C@@H]2CC[C@]2(C)[C@@H](O)CC[C@@H]12 — lower, 5
- C[C@]12CC[C@H]3[C@@H](CCC4=CC(=O)CC[C@@]43C)[C@@H]1CC[C@@H]2O — within 0.2 log units, 6.72
- C[C@]12C[C@H](O)[C@H]3[C@@H](CCC4=CC(=O)CC[C@@]43C)[C@@H]1CC[C@@H]2C(=O)CO — higher, 7.88
- C[C@@H]1C[C@@]2(C)C(=CC1=O)CC[C@H]1[C@@H]3CC[C@](O)(C(=O)CO)[C@@]3(C)C[C@H](O)[C@@]12F — lower, 5.8
- C[C@]12CCC(=O)C=C1CC[C@@H]1[C@@H]2CC[C@]2(C)C(=O)CC[C@@H]12 — lower, 5.76
- CC(=O)[C@@]1(O)CC[C@H]2[C@@H]3CCC4=CC(=O)CC[C@]4(C)[C@H]3CC[C@@]21C — higher, 7.74
- CC(=O)OCC(=O)[C@@]1(O)CC[C@H]2C3CCC4=CC(=O)CC[C@]4(C)[C@H]3[C@@H](O)C[C@@]21C (single isomer, unassigned) — higher, 7.55
- CC(=O)[C@H]1CC[C@H]2[C@@H]3CC=C4C[C@@H](O)CC[C@]4(C)[C@H]3CC[C@]12C — lower, 5.25
- CC(=O)[C@H]1CC[C@H]2[C@@H]3CCC4=CC(=O)CCC4[C@H]3CC[C@]12C (stereo not given in full) — within 0.2 log units, 6.82

These compounds were tested against T2, Corticosteroid-binding globulin (Sus scrofa) (UniProt Q9GK37).
T2 sequence (whole entry): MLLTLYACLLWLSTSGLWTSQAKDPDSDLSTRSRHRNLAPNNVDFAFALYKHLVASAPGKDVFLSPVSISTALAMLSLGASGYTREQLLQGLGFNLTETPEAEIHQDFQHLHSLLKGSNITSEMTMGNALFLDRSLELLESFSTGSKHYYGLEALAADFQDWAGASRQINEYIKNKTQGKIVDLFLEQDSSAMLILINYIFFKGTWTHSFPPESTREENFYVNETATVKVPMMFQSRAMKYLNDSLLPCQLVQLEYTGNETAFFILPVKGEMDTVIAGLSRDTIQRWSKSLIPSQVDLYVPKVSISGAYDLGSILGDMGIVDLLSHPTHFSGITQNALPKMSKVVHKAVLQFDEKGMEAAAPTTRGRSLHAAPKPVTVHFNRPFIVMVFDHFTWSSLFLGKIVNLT
Description: Compound was tested for Corticosteroid binding globulin affinity

`C[C@]12CC[C@@H]3c4ccc(O)cc4CC[C@H]3[C@@H]1CC[C@@H]2O` showed a Log K of 5.
